Experimental data from patent US9890176B2, “Mannose derivatives for treating bacterial infections” (Vertex Pharmaceuticals Incorporated, priority 2013, dated 2018).

Each compound was assayed on bacterial strain LF82 binding to the glycoprotein BSA-(Mannose)3 (assay: Bacterial Binding Assay (BBA)). Conditions: read-out: Bacterial Binding Assay IC50.
Type: cell-based, Escherichia coli
Excerpt: The purpose of the Bacterial Binding Assay (BBA) is to determine the inhibition activity of selective FimH antagonists on the bacterial strain LF82 binding to the glycoprotein BSA-(Mannose)3.
Below is a list of the Materials used to run the BBA are described below. • 1. LB broth: Supplier: Gibco, #10855 • 2. D-PBS: Supplier: Wisent, #311-425-CL • 3. LB agar plates • 4. 96-well black plate (high binding): Supplier: Costar, #3925 • 5. TopSeal™-A adhesive sealing films; Supplier PerkinElmer, #6005185 • 6. Carbonate-bicarbonate buffer pH 9.6 tablets, Supplier: Medicago, #09-8922-24 • 7. Water, Supplier: Gibco, #15230-162 • 8. Bovine serum albumin (BSA): Supplier: Sigma, #A-7888 • 9. (Man)-3-BSA (α1-3, α1-6 Mannotriose-BSA, 1 mg), V-Labs, #NGP1336, lot#HGDX37-169-1 • 10. Tween 20: Supplier: Sigma, #P9416 • 11. Bright-Glo Luciferase Assay System: Supplier: Promega, #E2610 • 12. LF82/Luciferase strain: Invasive ability of an Escherichia coli strain isolated from the ileal mucosa of a patient with Crohn's disease. Boudeau J, Glasser A L, Masseret E, Joly B, Darfeuille-Michaud A, Infect Immun. 1999, 67(9), 4499-509
Solutions and buffers used to run the BBA are described below. • 1. 0.04M carbonate-bicarbonate buffer (coating buffer) • 2. […] 1 mg of (Man)-3-BSA in 25 mL of water. • 3. 4000 ng/mL BSA • 4. 40 ng/mL BSA • 5. 1 μg/mL BSA-(Man)3: 150 μL of 40 ng/mL BSA-(Man)3+5.85 mL of 40 ng/mL BSA • 6. 0.5 μg/mL BSA-(Man)3 in 0.02M carbonate-bicarbonate buffer. • 7. 20 ng/mL BSA in 0.02M carbonate-bicarbonate buffer • 8. Blocking buffer (2% BSA/DPBS): 1 g of BSA in 50 mL D-PBS • 9. 2× binding buffer (0.2% BSA/D-PBS): 5 mL of blocking buffer+45 mL D-PBS. • 10. Washing buffer (D-PBS/0.01% Tween 20): 10 μL of Tween 20 in 100 mL D-PBS. • 11. 1× Bright-Glo Luciferase substrate:Dilute 1:1 the Bright-Glo Luciferase Assay System with D-PBS The experimental protocol to run the BBA is described below.
Overnight culture of LF82/Luciferase strain: Into two Falcon 50 mL tubes, add 20 mL of LB+20 μL of 50 mg/mL Kanamycin and inoculate with a loop from glycerol stock of the LF82/Luciferase strain. Incubate overnight at 37° C. with no shaking.
Glycoprotein coating of 96-well plates: Add 100 μL/well of 0.5-2 μg/mL BSA-(Man)3. 20 μg/mL BSA is used as the control background. Seal plate using an adhesive sealing film and incubate overnight at room temperature. Wash the 96-well plate three times with 150 μL/well of D-PBS, add 170 μL/well of blocking solution and incubate 45 min (minimum) at room temperature.
Preparation of bacterial suspension: Mix the two cultures tubes (40 mL) and perform a 1:10 dilution in LB (900 μl LB+100 μl culture. Measure optical density (OD) of the bacterial cultures. OD1 ˜5×10^8 cells/mL. Centrifuge LF82 culture for 20 min at 3500 rpm at room temperature. Re-suspend bacterial pellet in D-PBS and centrifuge again for 20 min at 3500 rpm. Re-suspend bacterial pellet in D-PBS to obtain a bacterial concentration of 2×10^9 bacteria/mL. Dilute 1/10 in D-PBS to obtain a final bacterial concentration of 2×10^8 bacteria/mL (=107 bacteria/50 μL). Perform 1/10 serial dilutions in LB of each bacterial suspension, plate 10 μL of dilutions on LB agar plates (final dilutions of 10^−7) and incubate overnight at 37° C. and count CFUs to determine the actual bacteria density in the assay.
Bacterial binding assay: Add 147 μL 2× binding buffer to compound plate (containing 3 μL of compound). After blocking step is performed (at least 45 min), wash plates three times with 200 μL/well of D-PBS. With a 100 μL multichannel manual pipettor, add 50 μL/well of compound diluted in 2× binding buffer. With a 100 μL multichannel manual pipettor, add 50 μL/well of bacterial suspension. Agitate at slow speed for 1 min and incubate 40-75 min at room temperature. Wash 5 times with 150 μL/well of washing buffer and then once with D-PBS. Add 100 μL/well of 1× Bright-Glo Luciferase substrate. […]

Structure (SMILES)	IC50
Cc1cc(-c2cccc(C(=O)O)c2)ccc1O[C@H]1O[C@H](CO)[C@@H](O)[C@H](O)[C@]1(C)O [Compound 21]	112 ± 37 nM
Cc1cc(-c2cccc(C(=O)NCCOCCOCCN)c2)ccc1O[C@H]1O[C@H](CO)[C@@H](O)[C@H](O)[C@]1(C)O [Compound 22]	15 ± 4 nM
CNC(=O)c1cccc(-c2ccc(O[C@H]3O[C@H](CO)[C@@H](O)[C@H](O)[C@@]3(O)COCc3ccccc3)c(C)c2)c1 [Compound 23]	115 ± 25 nM
CNC(=O)c1cccc(-c2ccc(O[C@H]3O[C@H](CO)[C@@H](O)[C@H](O)[C@@]3(O)CO)c(C)c2)c1 [Compound 24]	19 ± 3 nM
CNC(=O)c1cccc(-c2ccc(O[C@H]3O[C@H]([C@@H](O)C(C)C)[C@@H](O)[C@H](O)[C@@H]3O)c(C)c2)c1 [Compound 30]	> 10000 nM
CC[C@H](O)[C@H]1O[C@H](Oc2ccc(-c3cccc(C(=O)NC)c3)cc2C)[C@@H](O)[C@@H](O)[C@@H]1O [Compound 31]	> 10000 nM
O=[N+]([O-])c1cccc(-c2ccc3c(c2)CC[C@]2(O3)O[C@H](CO)[C@@H](O)[C@H](O)[C@@H]2O)c1 [Compound 34]	79 ± 31 nM
C[C@@]1(O)[C@@H](OCc2ccccc2)O[C@H](CO)[C@@H](O)[C@@H]1O [Compound 37]	> 10000 nM
CNC(=O)c1cccc(-c2ccc(O[C@H]3O[C@H](CO)[C@@H](O)[C@H](O)[C@@]3(O)CN=[N+]=[N-])c(C)c2)c1 [Compound 38]	105 ± 5 nM
CNC(=O)c1cccc(-c2ccc(O[C@H]3O[C@H](CO)[C@@H](O)[C@H](O)[C@]3(C)O)cc2F)c1 [Compound 39]	265 ± 135 nM
CNC(=O)c1cccc(-c2ccc(O[C@H]3O[C@H](CO)[C@@H](O)[C@H](O)[C@]3(C)O)cc2Cl)c1 [Compound 40]	220 ± 110 nM
CNC(=O)c1cccc(-c2ccc(O[C@H]3O[C@H](CO)[C@@H](O)[C@H](O)[C@]3(C)O)cc2OC)c1 [Compound 41]	220 ± 110 nM
CNC(=O)c1cccc(-c2ccc(O[C@H]3O[C@H](CO)[C@@H](O)[C@H](O)[C@]3(C)O)cc2C)c1 [Compound 42]	375 ± 255 nM
CNC(=O)c1cccc(-c2ccc(O[C@H]3O[C@H](CO)[C@@H](O)[C@H](O)[C@]3(C)O)cc2C(F)(F)F)c1 [Compound 43]	785 ± 474 nM
CNC(=O)c1cccc(-c2ccc(Cl)c(O[C@H]3O[C@H](CO)[C@@H](O)[C@H](O)[C@]3(C)O)c2)c1 [Compound 44]	43 ± 12 nM
CNC(=O)c1ccc(-c2ccc(Cl)c(O[C@H]3O[C@H](CO)[C@@H](O)[C@H](O)[C@]3(C)O)c2)cc1 [Compound 45]	116 ± 34 nM
CNC(=O)c1cccc(-c2cccc(O[C@H]3O[C@H](CO)[C@@H](O)[C@H](O)[C@]3(C)O)c2Cl)c1 [Compound 46]	126 ± 38 nM
CNC(=O)c1ccc(-c2cccc(O[C@H]3O[C@H](CO)[C@@H](O)[C@H](O)[C@]3(C)O)c2Cl)cc1 [Compound 47]	55 ± 29 nM
CNC(=O)c1cccc(-c2ccc(O[C@H]3O[C@H](CO)[C@@H](O)[C@H](O)[C@@]3(O)CN)c(C)c2)c1 [Compound 48]	605 ± 215 nM
CNC(=O)c1cccc(-c2ccc(O[C@H]3O[C@H](CO)[C@@H](O)[C@H](O)[C@@]3(O)COCCOCc3ccccc3)c(C)c2)c1 [Compound 49]	280 ± 20 nM
CNC(=O)c1cccc(-c2ccc(O[C@H]3O[C@H](CO)[C@@H](O)[C@H](O)[C@@]3(O)COCCO)c(C)c2)c1 [Compound 50]	830 ± 170 nM

Structure (SMILES)	IC50
CNC(=O)c1cccc(-c2ccc(O[C@H]3O[C@H](CO)[C@@H](O)[C@H](O)[C@@]3(O)Cn3cc(CO)nn3)c(C)c2)c1 [Compound 51]	7150 ± 50 nM
CNC(=O)c1cccc(-c2ccc(O[C@H]3O[C@H](CO)[C@@H](O)[C@H](O)[C@@]3(O)CNC(C)=O)c(C)c2)c1 [Compound 52]	48 ± 10 nM
COCCNC(=O)c1cccc(-c2ccc(O[C@H]3O[C@H](CO)[C@@H](O)[C@H](O)[C@]3(C)O)c(Cl)c2)c1 [Compound 53]	24 ± 6 nM
C[C@@]1(O)[C@@H](Oc2ccc(-c3ccc(C(=O)NC4CC4)c(Cl)c3)cc2Cl)O[C@H](CO)[C@@H](O)[C@@H]1O [Compound 54]	42 ± 7 nM
CNC(=O)c1cc(-c2ccc(O[C@H]3O[C@H](CO)[C@@H](O)[C@H](O)[C@]3(C)O)c(Cl)c2)ccc1F [Compound 55]	20 ± 0.5 nM
CNC(=O)c1cc(F)cc(-c2ccc(O[C@H]3O[C@H](CO)[C@@H](O)[C@H](O)[C@]3(C)O)c(Cl)c2)c1 [Compound 56]	24 ± 0.5 nM
COC(=O)c1cccc(-c2ccc(O[C@H]3O[C@H](CO)[C@@H](O)[C@H](O)[C@]3(C)O)c(C)c2)c1 [Compound 57]	17 ± 4 nM
Cc1cc(-c2cccc(C(=O)NCCN3CCN(C)CC3)c2)ccc1O[C@H]1O[C@H](CO)[C@@H](O)[C@H](O)[C@]1(C)O [Compound 58]	13 ± 1 nM
Cc1cc(-c2cccc(C(=O)N[C@@H](CO)[C@H](C)O)c2)ccc1O[C@H]1O[C@H](CO)[C@@H](O)[C@H](O)[C@]1(C)O [Compound 59]	20 ± 4 nM
Cc1cc(-c2cccc(C(=O)NC(CO)(CO)CO)c2)ccc1O[C@H]1O[C@H](CO)[C@@H](O)[C@H](O)[C@]1(C)O [Compound 60]	16 ± 0.5 nM
Cc1cc(-c2cccc(C(=O)NC(C)(CO)CO)c2)ccc1O[C@H]1O[C@H](CO)[C@@H](O)[C@H](O)[C@]1(C)O [Compound 61]	22 ± 6 nM
Cc1cc(-c2cccc(C(=O)NC(CO)CO)c2)ccc1O[C@H]1O[C@H](CO)[C@@H](O)[C@H](O)[C@]1(C)O [Compound 62]	9 ± 3 nM
Cc1cc(-c2cccc(C(=O)NCCN3CCOCC3)c2)ccc1O[C@H]1O[C@H](CO)[C@@H](O)[C@H](O)[C@]1(C)O [Compound 63]	12 ± 3 nM
Cc1cc(-c2cccc(C(=O)NC[C@H]3OC(O)[C@H](O)[C@@H](O)[C@@H]3O)c2)ccc1O[C@H]1O[C@H](CO)[C@@H](O)[C@H](O)[C@]1(C)O (stereo partly drawn) [Compound 64]	20 ± 0.5 nM
Cc1cc(-c2cccc(C(=O)N[C@H]3[C@H](O)[C@@H](CO)OC(O)[C@@H]3O)c2)ccc1O[C@H]1O[C@H](CO)[C@@H](O)[C@H](O)[C@]1(C)O (stereo partly drawn) [Compound 65]	20 ± 8 nM
Cc1cc(-c2cccc(C(=O)NCC3CCN(C(=O)OC(C)(C)C)CC3)c2)ccc1O[C@H]1O[C@H](CO)[C@@H](O)[C@H](O)[C@]1(C)O [Compound 66]	11 ± 3 nM
Cc1cc(-c2cccc(C(=O)NCCN(C)C)c2)ccc1O[C@H]1O[C@H](CO)[C@@H](O)[C@H](O)[C@]1(C)O [Compound 67]	15 ± 6 nM
Cc1cc(-c2cccc(C(=O)N3CCN(C)CC3)c2)ccc1O[C@H]1O[C@H](CO)[C@@H](O)[C@H](O)[C@]1(C)O [Compound 68]	26 ± 4 nM
Cc1cc(-c2cccc(C(=O)N[C@@H](CO)C(=O)O)c2)ccc1O[C@H]1O[C@H](CO)[C@@H](O)[C@H](O)[C@]1(C)O [Compound 69]	30 ± 12 nM
Cc1cc(-c2cccc(C(=O)N3CCCC3)c2)ccc1O[C@H]1O[C@H](CO)[C@@H](O)[C@H](O)[C@]1(C)O [Compound 70]	30 ± 1 nM
Cc1cc(-c2cccc(C(=O)N(CCO)C(CO)(CO)CO)c2)ccc1O[C@H]1O[C@H](CO)[C@@H](O)[C@H](O)[C@]1(C)O [Compound 71]	8 ± 2 nM
